For one experiment, the system named is HeLa cells. Kind of experiment: Internalisation of fluorescein-labelled peptides, confocal fluorescence microscopy. The class given is cell-based. As to the method:
FIG. 21. Transfection of peptides GSE4 and GSE4NLS1 in HeLa cells. Peptides GSE4 and GSE4NLS1 (SEQ ID No. 7) labelled with fluorescein and obtained by chemical synthesis were transfected into HeLa cells using the Proteojuice reagent and viewed in a confocal fluorescence microscope at 9, 24 and 48 hours after transfection.
FIG. 22. Internalisation of peptides GSE4 and GSE4NLS1 in HeLa cells. Peptides GSE4 and GSE4NLS1 (SEQ ID No. 7) labelled with fluorescein and obtained by chemical synthesis were added to the culture medium of HeLa cells and viewed in a confocal fluorescence microscope at 9, 24 and 48 hours after transfection.
Given the ability of sequence NLS1 to contribute to the activity of GSE24.2, a synthetic peptide into which this sequence was placed in the 3′ region of peptide GSE4 was constructed as this was the peptide for which the greatest telomerase activation was obtained. The peptides obtained by chemical synthesis were labelled with fluorescein to facilitate their visualisation in a fluorescence microscope. Two experiments were performed in parallel, in one the peptides were transfected using Proteojuice reagent and in the other they were added directly to the culture medium. […] An important difference observed was that when the peptides were added directly to the culture medium, the peptide entered into a higher number of cells than when Proteojuice was used. The reagent provided greater effectiveness for internalisation but into a small number of cells.

Experiment [1] relates to promoter of c-myc in 293T cells. Kind of experiment: c-myc promoter luciferase reporter activity. It is filed as cell-based. Particulars: 24 hours, relative to GSE24.2. As to the method: FIG. 20. Activity of constructions GSE24.2NLS1-3 and GSE24.2NLS2-3 on the c-myc promoter. The expression vectors for the constructions GSE24.2, GSE24.2N LS1-3 and GSE24.2NLS2-3 were transfected (using lipofectamine) into 293T cells together with the reporter gene of the promoter of c-myc, pXP1, and 24 hours later the luciferase activity was measured using a commercial kit. The values are expressed as relative activity, considering 1 as the value of luciferase with the empty expression vector pCDNA3myc.
With the aim of evaluating biological activity of the constructions containing the signals NLS1-3 and N LS2-3, they were transfected into 293T cells together with the reporter gene of the promoter of c-myc and the luciferase activity activated by both constructions GSE24.2NLS1-3 and GSE24.2NLS2-3 was evaluated in relation to GSE24.2.
Background: In a reporter assay the amount or activity of a reporter protein is the signal.

The subject of experiment [2] is AT2078 cells of patients with ataxia telangiectasia. Put plainly: Damage to DNA in AT2078 cells: histone H2AX Ser139 foci after expression of GSE4 or SGSE4. The settings on record: 200 cells. The class given is cell-based, human. As to the method:
FIG. 14. Determination of damage to DNA in AT cells after transfecting peptides GSE4 and SGSE4: AT2078 AT cells were infected with a lentiviral vector expressing GSE4, SGSE4 or a GFP empty vector and 24 hours later were fixed for processing and hybridised with an antibody against phosphorylated histone H2AX (Ser139). Control C-1787 cells were used as the negative control. Next they were hybridised with a fluorescein-labelled antibody and were stained with DAPI to locate the nuclei.
As the peptide denominated GSE4 was the smallest sized of the peptides with ability to inhibit damage to DNA, we studied if another peptide with a similar sequence localised in the sequence of peptide GSE24.2 had the same activity or if that activity was specific to GSE4. Peptide SGSE4 (SEQ ID No. 15) is similar to GSE4 in sequence (amino acids LDPK/LDKP that constitute consensus sequences for pseudouridine synthases) and size and is found in the TRUBII domain of dyskerin. Cell lines AT2078 of patients with ataxia telangiectasia were used for this test. Cell line C-1787 was used as the control cell line. The cells were infected with the bicistronic lentiviral vector pCMV-GFP-GSE4, SGSE4 or GFP. After 48 hours of infection the cells were fixed with formaldehyde and then permeabilized by treating them with Triton X-100. The damage to DNA was estimated by studying the signal after hybridisation of the cells with an antibody against histone H2AX Ser139 and subsequent hybridisation with an antibody bound to fluorescein. The number of foci with stain for histone H2AX per nucleus was determined by confocal microscopy in a total of 200 cells and the data represented as a percentage of cells with a specific number of foci.

For the molecule “GFINLDKPSNPKRKR (GSE4NLS1-3; listed as Homo sapiens)”, the entry into cells result with HeLa cells (peptide simply added to the culture medium) and with HeLa cells (transfected using Proteojuice reagent) was “entered the cells” throughout.

Turning to “GFINLDKPSNPSSHEVVAWIRRILRVEKTGHSGTLDPKVTGCLIVCIERATRLVKKRKR (GSE24.2NLS1-3; listed as Homo sapiens) [GSE24.2 with NLS1 in the 3′ position]”, the “activation of expression of the promoter of c-myc (luciferase)” value in experiment [1] was “more effectively than GSE24.2”.

With “HSGTLDPKVTG (listed as Homo sapiens) [SGSE4, reference compound]”, in experiment [2], the “AT cells in which overall damage to DNA is corrected” value is “not able to correct the damage to DNA”.

B1: GFINLDKPSNPSSHEVVAWIRRILRVEKTGHSGTLDPKVTGCLIVCIERATRLVKKKEKKKSK (peptide, listed as Homo sapiens)
chain: GFINLDKPSNPSSHEVVAWIRRILRVEKTGHSGTLDPKVTGCLIVCIERATRLVKKKEKKKSK
modifications: GSE24.2NLS2-3
notes: GSE24.2 with NLS2 in the 3′ position
Regarding B1, the “activation of expression of the promoter of c-myc (luciferase)” value in experiment [1] was “more effectively than GSE24.2”.

These data come from US20160340656A1, “PEPTIDES DERIVED FROM GSE 24.2 FOR TREATING DISEASES CAUSED BY OXIDATIVE STRESS AND DAMAGE TO DNA” (CONSEJO SUPERIOR DE INVESTIGACIONES CIENTÍFICAS (CSIC), priority 2013, published 2016).
